The values that follow come from US20070208069A1, “PHARMACEUTICAL FORMULATIONS OF AN ANHYDROUS CRYSTAL FORM OF 2-(3-FLUORO-4-HYDROXYPHENYL)-7-VINYL-1,3-BENZOXAZOL-5-OL” (Wyeth, priority 2006, published 2007).

Molecules are shown by their SMILES.

Holding throughout (type): physicochemical
Data set [1] can be described thus: Dynamic vapor sorption (hygroscopicity). Particulars: for DVS gain: 0–90% RH. An excerpt: Dynamic Vapor Sorption (Allentown, Pa.) was used to measure the hygroscopicity of the anhydrate and monohydrate of the invention (see FIGS. 6 and 7). The step conditions were three hours each at 0%, 30%, 52.5%, 75% and 90% RH, two full cycles.
Data set [2] can be described thus: Solid-state stability of crystal forms (XRPD, TGA). Particulars: for Long term crystal form stability (XRPD, TGA): three months (monohydrate also 40° C. without humidity control). The method, then: […] At room temperature, humidity was maintained at 0% RH. Humidity was not controlled for the higher temperatures.
The samples were analyzed by XRPD and TGA.
(§1) Non-micronized samples of monohydrate and anhydrate were stored at 40° C./75% RH for three months. The monohydrate was also stored at 40° C. without humidity control. During the three months, the samples were checked after two weeks, one month, two months, and three months.

Data set [3] in a line: Chemical stability on storage (HPLC). Particulars: non-micronized, 40° C./75% RH, three months. The method, then:
as §1

The nature of data set [4]: Water solubility of the two crystal forms.

Consider `C=Cc1cc(O)cc2nc(-c3ccc(O)c(F)c3)oc12` [Anhydrate, 2-(3-fluoro-4-hydroxyphenyl)-7-vinyl-1,3-benzoxazol-5-ol], for which, in data set [1], the “Hygroscopicity (DVS), in words” value was “largely non-hygroscopic” and the DVS gain was 0.2% gain (0–90% RH). Besides, the “Crystal form stability (XRPD)” value in data set [2] (micronized, 25° C./60% RH, three months) is “did not transform to the monohydrate”. For the same molecule, the “Crystal form stability (XRPD)” value in data set [2] (micronized, 40° C./75% RH, one month) is recorded as “did partially transform to the monohydrate”. In data set [2] (non-micronized, 40° C./75% RH), the “Crystal form stability (XRPD)” value is recorded as “did not show any obvious transformation” and the “Long term crystal form stability (XRPD, TGA)” value is recorded as “did not transform”. The “Long term chemical stability (HPLC)” value in data set [3] is given as “chemically stable”.

With `C=Cc1cc(O)cc2nc(-c3ccc(O)c(F)c3)oc12` [Monohydrate, 2-(3-fluoro-4-hydroxyphenyl)-7-vinyl-1,3-benzoxazol-5-ol], the “Water solubility compared between forms, in words” value in data set [4] is listed as “significantly lower solubility than the anhydrate”. The “Hygroscopicity (DVS), in words” value in data set [1] is listed as “largely non-hygroscopic”. Further, in data set [1], the DVS gain is recorded as 0.1% gain (0–90% RH). For the same molecule, the “Medium term stability (XRPD, TGA)” value is listed as “no obvious dehydration” in data set [2] (56° C., humidity not controlled, one week); “no obvious hydration” in data set [2] (70° C., 1 day); “partially dehydrated” in data set [2] (70° C., 4 days); “mostly dehydrated” in data set [2] (70° C., 7 days); “no obvious dehydration” in data set [2] (room temperature, 0% RH, one week). Besides, the “Short term stability (XRPD)” value was “stable” in data set [2] (70° C., one hour); “partially dehydrated” in data set [2] (90° C., one half hour); “completely dehydrated” in data set [2] (90° C., one hour). In addition, the “Long term crystal form stability (XRPD, TGA)” value in data set [2] (non-micronized, 40° C./75% RH) is on record as “did not transform”. The “Long term chemical stability (HPLC)” value in data set [3] is “chemically stable”.
